# What was measured:
# [1] = tested on: HT-29 Colorectal Xenograft; assay: HT-29 colorectal xenograft, route of administration (Example 70); type: in vivo, mice; details: intraperitoneal ALZET osmotic pump, 25 mg/kg/day over 14 days
# Method: This study examined the effect of route of administration on tumor growth inhibition. Tumor bearing mice were treated with compound 2-3 intraperitoneally (ALZET osmotic pumps, delivering 25 mg/kg/day over 14 days) or intravenously (80 mg/kg/d on Days 1, 4 and 7). Because of difficulty in maintaining tail vein patency, this group of mice received subsequent dose intraperitoneally on Days 10, 11, 12 and 15. Compound 2-3 delivered continuously via the osmotic pump decreased tumor growth rate to 10.75 mm^3/d, compared with vehicle-treated tumor growth rate of 28.28 mm^3/d (see FIG. 5). Treated/Control ratio was 38%. […] However, after dosing was switched to IP, this effect was lost.
# [2] = tested on: A549 non-small cell lung carcinoma cells; assay: cell cycle distribution by DNA content flow cytometry (Guava); type: cell-based; details: synchronized A549 cells, 24 hours post-release
# Method: It is expected that a specific Aurora-2 kinase inhibitor would cause only brief cell cycle arrest at G2/M, which should be immediately followed by apoptosis. This is in contrast to Aurora-1 kinase inhibitors, which tend to cause a prolonged cell cycle arrest. compound 2-3 was examined for its ability to cause cell cycle arrest and apoptosis. Briefly, A549 non-small cell lung carcinoma cells were plated at 50000 cells/mL in a 24-well plate. Cells were synchronized with 4 μg/mL Aphidicolin for 16 hours, followed by a 24 hour synchronization with 1 μg/mL Hoechst 33342, to arrest the cells at the G2/M boundary. Cells were then released into regular medium with or without SGI-498 and allowed to grow for an additional 24 hours. This synchronization was necessary for visualization of the brief G2/M arrest caused by compound 2-3. Following this incubation, cells were stained for DNA content analysis using the Guava Cell Cycle Assay Kit (Guava Technologies, Hayward Calif.), according to manufacturer instructions. Cells were then analyzed with the Guava EasyCyte benchtop flow cytometer using the Guava Cell Cycle analysis protocol. Cells were gated according to DNA content into G0/G1, S, G2/M or apoptotic (sub-G1) categories.
# MiaPaCa-2 (pancreas) = assay: in vitro cytotoxicity assay (Cell-Titer-Glo), MiaPaCa-2; type: cell-based; details: Homo sapiens, MIA PaCa-2; Table 10; 96 hours; read-out: IC50 MiaPaCa-2 (inhibit cell growth to 50% of untreated)
# [3] = tested on: HT-29 human colon cancer cells; assay: HT-29 xenograft study in mice (Example 57); type: in vivo; details: 5 mg/kg IP, QDx5 for three weeks
# Method: In order to evaluate the effectiveness of compound 2-5 against tumor cells in a living system, a xenograft study was performed in mice. 1×10^7 HT-29 human colon cancer cells were injected subcutaneously into Nu/Nu athymic nude mice (Charles River Laboratories, Wilmington, Mass.). Tumor volume was measured according to the formula ((Width)^2*Length)/2. Tumors were allowed to grow to approximately 200 mm^3 in volume (Day 0), at which point mice were randomized to three groups. Eight mice were grouped to receive SGI-1097 as treatment, and two groups of eight would receive vehicle alone as a negative control. The SGI-1097 compound was formulated in the following vehicle: 10% EtOH; 30% PEG 300; 60% solution of 300 mg/ml 2-Hydroxypropyl-beta-cyclodextrin in water.
# In the treatment group, each animal received 5 mg/kg of compound 2-5 in the aforementioned vehicle at a volume of 100 μl, dosed IP. The dosing schedule was QDx5 for three weeks. […]
# Another negative control group was dosed PO with corn oil on the same dosing schedule. The tumor volumes for both the treated and untreated groups were measured twice a week for the three week dosing period, and for one week after the dosing period.
compound,measurement,setting,value
"COc1cc2[nH]c3ncnc(N4CCN(C(=S)Nc5ccc(S(=O)(=O)Nc6ccc(F)cc6)cc5)CC4)c3c2cc1OC [Compound 2-3, 4-(6,7-dimethoxy-9H-pyrimido[4,5-b]indol-4-yl)-N-(4-(N-(4-fluorophenyl)sulfamoyl)phenyl)piperazine-1-carbothioamide]",Treated/Control ratio,[1],38%
same,tumor growth rate,[1],10.75 mm^3/d
same,cell cycle arrest and apoptosis,[2],Brief Cell Cycle Arrest in G2/M. Followed by Apoptosis
"CC(=O)NS(=O)(=O)c1ccc(NC(=S)N2CCN(c3ncnc4[nH]c5cc(C(F)(F)F)c(Cl)cc5c34)CC2)cc1 [Compound 1-1, 4-(6-Chloro-7-trifluoromethyl-9H-pyrimido[4,5-b]indol-4-yl)-piperazine-1-carbothioic acid (4-acetylsulfamoyl-phenyl)-amide]",IC50,MiaPaCa-2 (pancreas),66.6 µM
"COc1ccc2c(c1)[nH]c1ncnc(N3CCN(C(=S)Nc4ccc(S(=O)(=O)Nc5ccc(F)cc5)cc4)CC3)c12 [Compound 2-5, 4-(7-methoxy-9H-pyrimido[4,5-b]indol-4-yl)-N-(4-(N-(4-fluorophenyl)sulfamoyl)phenyl)piperazine-1-carbothioamide]",toxicity through the duration of the study,[3],No noticeable toxicity
same,tumor growth inhibition in vivo,[3],effective for inhibiting tumor growth in vivo

# From patent US20080207632A1, “PROTEIN KINASE INHIBITORS” (SUPERGEN, INC., priority 2006, published 2008)
